The target of assay [1] is T1, Dimer of Gag-Pol polyprotein [489-587] (Human immunodeficiency virus 1, UniProt P04585).
T1 construct: 489-587
The experiment in a line: Protease Inhibition Assay. As to conditions: pH 5; 22 °C. From the text: (§1) HIV-1 protease was purified and refolded from E. coli inclusion bodies. The substrate used spans the p17-p24 processing site (R-V-S-Q-N-Y-P-I-V-Q-N-K) and was derivatized with biotin and fluorescein isothiocyanate (FITC) at the amino and carboxy termini. In the presence of HIV-l protease, the substrate is rapidly cleaved into two parts. The biotinylated amino terminal fragment binds to the avidin beads while the FITC-containing carboxy1 terminal fragment is removed through the membrane. […] The bound fluorescence is obtained by processing on an IDEXX Screen Machine. Determination of Ki values with this assay requires analysis under conditions in which substrate concentration resides substantially below Km and the inhibitor concentrations greatly exceeds the Ki value and the enzyme concentration.

In assay [2] the target is T2, Dimer of Gag-Pol polyprotein [489-587] (Human immunodeficiency virus 1, UniProt P12497).
T2 construct: 489-587
Nature of the assay: Protease Inhibition Assay. The note with it: pH 5; 22 °C.
From the text: as §1

For orientation: Ki means a dissociation constant, usually derived from enzyme kinetics or from competition with a known ligand. For the compound `CCC[C@]1(CCc2ccccc2)CC(=O)C([C@@H](CC)c2cccc(NS(=O)(=O)c3ccc(C#N)cn3)c2)C(=O)O1` (stereo partly drawn) [5-cyano-N-{3-[(1S)-1-[(6S)-4-hydroxy-2-oxo-6-(2-phenylethyl)-6-propyl-5,6-dihydro-2H-pyran-3-yl]propyl]phenyl}pyridine-2-sulfonamide], affinity in assay [1] was put at a Ki of 0.12 nM. `CCC[C@]1(CCc2ccccc2)CC(=O)C([C@H](CC)c2cccc(NS(=O)(=O)c3ccc(C(F)(F)F)cn3)c2)C(=O)O1` (stereo partly drawn) [N-{3-[(1R)-1-[(6S)-4-hydroxy-2-oxo-6-(2-phenylethyl)-6-propyl-5,6-dihydro-2H-pyran-3-yl]propyl]phenyl}-5-(trifluoromethyl)pyridine-2-sulfonamide] returned a Ki in assay [1] of 0.018 nM.

In assay [1], `CCC[C@]1(CCc2ccccc2)CC(=O)C([C@H](CC)c2cccc(NS(=O)(=O)c3ccc(C#N)cn3)c2)C(=O)O1` (stereo partly drawn) [5-cyano-N-{3-[(1R)-1-[(6S)-4-hydroxy-2-oxo-6-(2-phenylethyl)-6-propyl-5,6-dihydro-2H-pyran-3-yl]propyl]phenyl}pyridine-2-sulfonamide] had an inhibitory constant (Ki) of 0.04 nM. In assay [2], `CCCC1(CCc2ccccc2)CC(=O)C(C(CC)c2cccc(NS(=O)(=O)c3cccc4cccnc34)c2)C(=O)O1` (configuration not stated) [N-(3-{1-[4-hydroxy-2-oxo-6-(2-phenylethyl)-6-propyl-5,6-dihydro-2H-pyran-3-yl]propyl}phenyl)quinoline-8-sulfonamide] registered an inhibitory constant (Ki) of 3 nM.

Turning to `CCC[C@@]1(CCc2ccccc2)CC(=O)C([C@H](CC)c2cccc(NS(=O)(=O)c3cn(C)cn3)c2)C(=O)O1` (stereo partly drawn) [N-{3-[(1R)-1-[(6R)-4-hydroxy-2-oxo-6-(2-phenylethyl)-6-propyl-5,6-dihydro-2H-pyran-3-yl]propyl]phenyl}-1-methyl-1H-imidazole-4-sulfonamide], the affinity in assay [1], expressed as Ki, was 0.06 nM. The same measure, in the same setting: as for `CCC[C@]1(CCc2ccccc2)CC(=O)C([C@@H](CC)c2cccc(NS(=O)(=O)c3cn(C)cn3)c2)C(=O)O1` (stereo partly drawn) [N-{3-[(1S)-1-[(6S)-4-hydroxy-2-oxo-6-(2-phenylethyl)-6-propyl-5,6-dihydro-2H-pyran-3-yl]propyl]phenyl}-1-methyl-1H-imidazole-4-sulfonamide], the figure is 1 nM. For the compound `CCC[C@@]1(CCc2ccccc2)CC(=O)C([C@H](CC)c2cccc(NS(=O)(=O)c3ccc(C(F)(F)F)cn3)c2)C(=O)O1` (stereo partly drawn) [N-{3-[(1R)-1-[(6R)-4-hydroxy-2-oxo-6-(2-phenylethyl)-6-propyl-5,6-dihydro-2H-pyran-3-yl]propyl]phenyl}-5-(trifluoromethyl)pyridine-2-sulfonamide], the inhibition constant Ki in assay [1] was 0.008 nM. Against the preceding compound, the Ki is about 120-fold lower. In assay [2], `CCCC1(CCc2ccccc2)CC(=O)C(C(CC)c2cccc(NS(=O)(=O)c3cn(C)cn3)c2)C(=O)O1` (configuration not stated) [N-(3-{1-[4-hydroxy-2-oxo-6-(2-phenylethyl)-6-propyl-5,6-dihydro-2H-pyran-3-yl]propyl}phenyl)-1-methyl-1H-imidazole-4-sulfonamide] yielded a Ki of 1 nM. In assay [2], `CCCC1(CCc2ccccc2)CC(=O)C(C(CC)c2cccc(NS(=O)(=O)c3ccc(C#N)cc3)c2)C(=O)O1` (configuration not stated) [4-cyano-N-(3-{1-[4-hydroxy-2-oxo-6-(2-phenylethyl)-6-propyl-5,6-dihydro-2H-pyran-3-yl]propyl}phenyl)benzene-1-sulfonamide] showed a Ki of 8 nM. Consider `CCC[C@@]1(CCc2ccccc2)CC(=O)C([C@@H](CC)c2cccc(NS(=O)(=O)c3ccc(C(F)(F)F)cn3)c2)C(=O)O1` (stereo partly drawn) [N-{3-[(1S)-1-[(6R)-4-hydroxy-2-oxo-6-(2-phenylethyl)-6-propyl-5,6-dihydro-2H-pyran-3-yl]propyl]phenyl}-5-(trifluoromethyl)pyridine-2-sulfonamide], for which, in assay [1], the inhibition constant (Ki) was found to be 0.032 nM. This lies in the picomolar range. `CCC[C@]1(CCc2ccccc2)CC(=O)C([C@H](CC)c2cccc(NS(=O)(=O)c3cn(C)cn3)c2)C(=O)O1` (stereo partly drawn) [N-{3-[(1R)-1-[(6S)-4-hydroxy-2-oxo-6-(2-phenylethyl)-6-propyl-5,6-dihydro-2H-pyran-3-yl]propyl]phenyl}-1-methyl-1H-imidazole-4-sulfonamide]: the Ki in assay [1] stood at 0.12 nM. This Ki lies about 3.8-fold higher than the previous one.

As for `CCC[C@]1(CCc2ccccc2)CC(=O)C([C@@H](CC)c2cccc(NS(=O)(=O)c3ccc(C(F)(F)F)cn3)c2)C(=O)O1` (stereo partly drawn) [N-{3-[(1S)-1-[(6S)-4-hydroxy-2-oxo-6-(2-phenylethyl)-6-propyl-5,6-dihydro-2H-pyran-3-yl]propyl]phenyl}-5-(trifluoromethyl)pyridine-2-sulfonamide], the inhibition constant (Ki) in assay [1] stood at 0.22 nM. This Ki is about 1.8-fold higher than that of the compound before.

In turn, `CCCC1(CCc2ccccc2)CC(=O)C(C(CC)c2cccc(NS(=O)(=O)c3ccccc3)c2)C(=O)O1` (configuration not stated) [N-(3-{1-[4-hydroxy-2-oxo-6-(2-phenylethyl)-6-propyl-5,6-dihydro-2H-pyran-3-yl]propyl}phenyl)benzenesulfonamide] yielded a Ki in assay [2] of 17 nM. The compound `CCC[C@@]1(CCc2ccccc2)CC(=O)C([C@@H](CC)c2cccc(NS(=O)(=O)c3ccc(C#N)cn3)c2)C(=O)O1` (stereo partly drawn) [5-cyano-N-{3-[(1S)-1-[(6R)-4-hydroxy-2-oxo-6-(2-phenylethyl)-6-propyl-5,6-dihydro-2H-pyran-3-yl]propyl]phenyl}pyridine-2-sulfonamide] registered an inhibition constant (Ki) in assay [1] of 0.1 nM. Take `CCC[C@@]1(CCc2ccccc2)CC(=O)C([C@@H](CC)c2cccc(NS(=O)(=O)c3cn(C)cn3)c2)C(=O)O1` (stereo partly drawn) [N-{3-[(1S)-1-[(6R)-4-hydroxy-2-oxo-6-(2-phenylethyl)-6-propyl-5,6-dihydro-2H-pyran-3-yl]propyl]phenyl}-1-methyl-1H-imidazole-4-sulfonamide]: the Ki in assay [1] was found to be 0.3 nM. The compound `CCC[C@@]1(CCc2ccccc2)CC(=O)C([C@H](CC)c2cccc(NS(=O)(=O)c3ccc(C#N)cn3)c2)C(=O)O1` (stereo partly drawn) [5-cyano-N-{3-[(1R)-1-[(6R)-4-hydroxy-2-oxo-6-(2-phenylethyl)-6-propyl-5,6-dihydro-2H-pyran-3-yl]propyl]phenyl}pyridine-2-sulfonamide] displayed an inhibition constant (Ki) in assay [1] of 0.007 nM.

`CCCC1(CCc2ccccc2)CC(=O)C(C(CC)c2cccc(NS(=O)(=O)c3ccc(F)cc3)c2)C(=O)O1` (configuration not stated) [4-fluoro-N-(3-{1-[4-hydroxy-2-oxo-6-(2-phenylethyl)-6-propyl-5,6-dihydro-2H-pyran-3-yl]propyl}phenyl)benzene-1-sulfonamide] gave an inhibitory constant (Ki) in assay [2] of 6 nM.

(Values after BindingDB's records for doi:10.1021/jm960541s (Upjohn, 1996).)
